This passage reports IC50 results from ChEMBL document CHEMBL3632573, “Triazine as a promising scaffold for its versatile biological behavior” (Eur J Med Chem, 2015).

The structures appear in SMILES notation.

The target of the experiment is Histone deacetylase. In words: Inhibition of HDAC (unknown origin). The experiment is classed as protein assay, Homo sapiens.

As usually defined, the IC50 is the point on the concentration scale where inhibition reaches its midpoint. A high value points to lower potency.

For the compound `Nc1nc(NCc2ccc(C(=O)Nc3ccccc3N)cc2)nc(NC2CCCC2)n1`, the IC50 was < 200 nM.
